Measured values taken from paper PMC12621367, “Salvianolic acid C inhibits methane emissions in dairy cows by targeting MCR and reshaping the rumen microbial community” (Journal of Animal Science and Biotechnology, 2025).

Target: T1, Methyl-coenzyme M reductase (MCR)
T1 construct: gene mcrA; with McrB and McrG (β and γ subunits)
Assay: MCR activity inhibition with a microbial MCR ELISA kit, dose-response, OD […] nm
Format: biochemical, Methanothermobacter marburgensis

## O=C(/C=C/c1ccc(O)c2oc(-c3ccc(O)c(O)c3)cc12)O[C@H](Cc1ccc(O)c(O)c1)C(=O)O [SAC, Salvianolic acid C]
  IC50: 692 µM
